# In patent US20110245334A1, “USE OF RACEMATES OF PINOCEMBRIN IN PREPARING MEDICAMENTS FOR TREATING STROKE” (CSPC Zhonggi Pharmaceutical Technology (Shijiazhuang) Co. …, priority 2008, published 2011):
# Experiments:
# [1] = system: tMCAO rats; test: Neurobehavioral examination (Bederson's score), tMCAO time window study; format: in vivo, rat; conditions: 2 hours ischemia and 24 hours reperfusion
# Description: (§1) 1. In the test, transient middle cerebral artery occlusion (tMCAO) model of rats was adopted. The reperfusion was performed after focal cerebral ischemia for 2 hours so as to inspect therapeutic time window of pinocembrin after focal cerebral ischemia. The rats were administered by pinocembrin racemate (1 mg/kg, 5 mg/kg, intravenous injection) after reperfusion 1 hour, 4 hours and 6 hours (i.e., ischemia 3 hour, 6 hours and 8 hours). (R)-pinocembrin and (S)-pinocembrin (1 mg/kg, 5 mg/kg, intravenous injection) were administered after reperfusion 1 hour and 4 hours (i.e., ischemia 3 hour and 6 hours). The therapeutic time windows of these drugs in focal cerebral ischemia were assessed by studying their effects to neurological symptom scores, infarct sizes and brain water contents during 24 hours after tMCAO.
# The CCA and ICA were clipped with artery clips. Two No. 0 surgery lines were litigated on the ECA distal end with 2-3 mm spacing and then the vascular between the two surgery lines was cut. The distal end of ECA was pulled until it formed a straight line with the ICA. An incision was cut on ECA and a nylon line was inserted through ECA into ICA. After the artery clip was loosen, the nylon line was pushed on into the brain through ICA and inserted in depth of 18.5±0.5 mm when resistance was felt slightly. The nylon line reached a smaller anterior cerebral artery through the beginning of MCA and then the blood flow obstruction in right MCA was established. the animals were kept in anesthesia during the obstruction. After 2 hours of obstruction, the nylon line was gently pulled out to ECA stub to form reperfusion. During the surgery process, the animals were irradiated by table lamp of 100 W to maintain the body temperature. The room temperature was kept in range of 23-25° C.
# (§2) 2.4 Experimental Grouping and Administration • Sham operation group (intravenous injection of normal saline after 3 hours of ischemia); • Model group (intravenous injection of 50 mg/kg hydroxypropyl β-cyclodextrin after 3 hours of ischemia); • Nimodipine group (1 mg/kg, administered after 3 hours of ischemia); • Pinocembrin racemate group (1 mg/kg, 5 mg/kg, administered after 3, 6 and 8 hours of ischemia); • (R)-pinocembrin group (1 mg/kg, 5 mg/kg, administered after 3 and 6 hours of ischemia); • (S)-pinocembrin group (1 mg/kg, 5 mg/kg, administered after 3 and 6 hours of ischemia).
# (§3) First administration was performed by intravenous injection, and intraperitoneal injection was carried out once 12 hours later with a dose 1.5 times of that for intravenous injection.
# Neurobehavioral examination was performed respectively when the animals were awake after surgery and before the animals were put to death. Bederson's score was adopted (see details in Example 2, 1. Neurobehavioral Examination).
# [2] = system: MCAO rats; test: Cerebral edema and Evans blue / fluorescein sodium leakage, MCAO; format: in vivo, rat; conditions: 24 hours
# Description: After surgery, a mixture solution of EB/NF (0.5%, dissolved in normal saline) of 0.25 ml was immediately (immediately after administration in the administration groups) injected via tail vein in the animals. 24 hours later, a normal saline was perfused in the hearts of the rats to get rid of unbound dye. The rats were decollated and the brain tissues were promptly removed and separated into ischemic hemisphere and non-ischemic hemisphere. The two hemispheres were weighted respectively and homogenated with 7.5% (w/v) trichloroacetic acid (TCA). The homogenate was divided into two parts, in which 1 ml homogenate was adjusted with 52 μl NaOH (5N) to reach a neutral pH value, and 200 μl of it was taken out to determine the fluorescence intensity (excitation 485 nm, emission 535 nm), the NF thereof was determined by using a standard curve made with NF solutions of concentration series. Another part of homogenate was centrifuged for 20 min at 12000 g and 4° C. 200 μl supernatant was taken out to a microplate and its absorbance was determined at 620 nm, and EB thereof was determined by using a standard curve made with EB solutions of concentration series. The results were expressed in form of μg EB (or NF)/g brain wet weight. Percentage of brain edema was expressed as: (brain weight in ischemic hemisphere−brain weight in non-ischemic hemisphere)/brain weight in non-ischemic hemisphere×100%.
# [3] = system: cerebral ischemic tissue in MCAO rats; test: Energy metabolism indexes in cerebral ischemic tissue, MCAO; format: in vivo, rat; conditions: for increase of energy index relative to the model group: 24 hours of cerebral ischemia; for ADP / AMP / ATP / CrP / Energy Load: cerebral ischemic tissue, MCAO rats
# From the text: The obtained r values were respectively rATP=0.9897, rADP=0.9896, rAMP=0.9893, rCrP=0.9981. The recovery rates of 4 kinds of standard materials were respectively (86.6±5.6) %, (94.45±7.5) %, (83.4±6.1) %, (78.69±7.3) %.
# [4] = system: TNF-α, IL-1β, ICAM-1, VCAM-1, iNOS, AQP-4; test: Expression of TNF-α, IL-1β, ICAM-1, VCAM-1, iNOS and AQP-4 in ischemic cerebral tissue (FIG. 2); format: in vivo, rat
# From the text: B is a statistic chart that quantifies the expression of TNF-α, IL-1β, ICAM-1, VCAM-1, iNOS and AQP-4 with β-actin as internal standard.
# With β-actin as internal standard, the expressions of TNF-α, IL-1β, ICAM-1, VCAM-1, iNOS, AQP-4 were quantified, and the inhibition effects of pinocembrin racemate on the above proteins were seen intuitively.
# [5] = in vivo; conditions: SD, rat, iv
# [6] = system: tMCAO rats; test: Therapeutic time window in focal cerebral ischemia-reperfusion injured rats; format: in vivo, rat; conditions: 1 mg/kg, 5 mg/kg; for effect on neurobehavioral injury, infarct volume and cerebral edema: tMCAO rats
# Description: as §1, §2, §3
# [7] = system: NO and TNF-α; test: NO and TNF-α contents in MCAO rats' serum; format: in vivo, rat; conditions: 24 hours after ischemia
# [8] = 24 h after ischemia, 3 mg/kg, 10 mg/kg, 30 mg/kg in early stage of ischemia, FIG. 2
smiles,measurement,setting,value
"COCCOC(=O)C1=C(C)NC(C)=C(C(=O)OC(C)C)C1c1cccc([N+](=O)[O-])c1 (stereo not shown) [Nimodipine, reference compound]",Neurobehavioral value,"[1]; 1 mg/kg, 3 h",2.09 ± 0.63
"O=C1CC(c2ccccc2)Oc2cc(O)cc(O)c21 (racemic) [Pinocembrin racemate, pinocembrin racemate]",EB leakage (μg/g tissue),[2]; 3 mg/kg iv,6.16 ± 0.4 μg/g tissue
same,NF leakage (μg/g tissue),[2]; 3 mg/kg iv,1.48 ± 0.08 μg/g tissue
same,Percentage of brain edema volume (%),"[2]; 3 mg/kg iv, 3 mg/kg",5.5±1.7%
same,EB leakage (μg/g tissue),[2]; 10 mg/kg iv,5.03 ± 0.8 μg/g tissue
same,NF leakage (μg/g tissue),[2]; 10 mg/kg iv,1.39 ± 0.20 μg/g tissue
same,Percentage of brain edema volume (%),"[2]; 10 mg/kg iv, 10 mg/kg",4.1±1.5%
same,EB leakage (μg/g tissue),[2]; 30 mg/kg iv,4.39 ± 0.4 μg/g tissue
same,NF leakage (μg/g tissue),[2]; 30 mg/kg iv,1.30 ± 0.15 μg/g tissue
same,Percentage of brain edema volume (%),"[2]; 30 mg/kg iv, 30 mg/kg",3.2±2.1%
same,Neurobehavioral value,"[1]; 1 mg/kg, 3 h",1.44 ± 0.72
same,Neurobehavioral value,"[1]; 1 mg/kg, 6 h",1.68 ± 0.46
same,Neurobehavioral value,"[1]; 1 mg/kg, 8 h",1.88 ± 0.61
same,Neurobehavioral value,"[1]; 5 mg/kg, 3 h",1.44 ± 0.52
same,Neurobehavioral value,"[1]; 5 mg/kg, 6 h",1.66 ± 0.77
same,Neurobehavioral value,"[1]; 5 mg/kg, 8 h",1.91 ± 0.66
same,increase of energy index relative to the model group,"[3]; first of two values printed for groups 3, 10, 30 mg/kg",34.6%
same,increase of energy index relative to the model group,"[3]; second of two values printed for groups 3, 10, 30 mg/kg",45.8%
same,ADP,[3]; 3 mg/kg,0.31 ± 0.04 µmol/g
same,AMP,[3]; 3 mg/kg,0.02 ± 0.00 µmol/g
same,ATP,[3]; 3 mg/kg,1.18 ± 0.18 µmol/g
same,CrP,[3]; 3 mg/kg,3.98 ± 1.23 µmol/g
same,Energy Load,[3]; 3 mg/kg,0.73 ± 0.23
same,ADP,[3]; 10 mg/kg,0.35 ± 0.06 µmol/g
same,AMP,[3]; 10 mg/kg,0.02 ± 0.00 µmol/g
same,ATP,[3]; 10 mg/kg,1.62 ± 0.21 µmol/g
same,CrP,[3]; 10 mg/kg,4.12 ± 1.25 µmol/g
same,Energy Load,[3]; 10 mg/kg,0.88 ± 0.23
same,ADP,[3]; 30 mg/kg,0.38 ± 0.05 µmol/g
same,AMP,[3]; 30 mg/kg,0.02 ± 0.00 µmol/g
same,ATP,[3]; 30 mg/kg,1.97 ± 0.58 µmol/g
same,CrP,[3]; 30 mg/kg,4.43 ± 1.34 µmol/g
same,Energy Load,[3]; 30 mg/kg,0.96 ± 0.29
same,expression of cytokines TNF-α and IL-1β in cerebral ischemia tissue,[4]; [8],"inhibited the expression of TNF-α, IL-1β in some extents"
same,expression of iNOS and AQP-4 protein,[4]; [8],inhibited the expression of iNOS and AQP-4 protein in some extents
same,"inhibition of expression of TNF-α, IL-1β, ICAM-1, VCAM-1, iNOS, AQP-4 quantified with β-actin as internal standard",[4]; doses of 10 mg/kg and 30 mg/kg,showed better results
same,LD50,[5],491 mg/kg
same,therapeutic time window,"[6]; acute ischemic stroke in rats (tMCAO), iv",about 6 hours
same,"effect on neurobehavioral injury, infarct volume and cerebral edema",[6]; initially injected after 3 hours of ischemia,significant
same,"effect on neurobehavioral injury, infarct volume and cerebral edema",[6]; initially injected after 6 hours of ischemia,significant
same,NO,[7]; 3 mg/kg,109.80 ± 9.38 µmol/L
same,TNF-α,[7]; 3 mg/kg,1163.09 ± 51.12 pg/mL
same,NO,[7]; 10 mg/kg,107.11 ± 9.13 µmol/L
same,TNF-α,[7]; 10 mg/kg,1104.83 ± 48.43 pg/mL
same,NO,[7]; 30 mg/kg,104.75 ± 5.03 µmol/L
same,TNF-α,[7]; 30 mg/kg,1057.48 ± 48.48 pg/mL
